From patent publication US20220348572A1, “BRIDGED HETEROCYCLYL-SUBSTITUTED PYRIMIDINE COMPOUND, PREPARATION METHOD THEREFOR, AND PHARMACEUTICAL USE THEREOF” (The National Institutes of Pharmaceutical R&D Co., Ltd., priority 2019, published 2022) come the findings set out here.

The target in this test is T1, JAK1 kinase (Homo sapiens, UniProt P23458).
T1 construct: purchased Invitrogen PV4744
T1 sequence (P23458 866-1154 limits assumed): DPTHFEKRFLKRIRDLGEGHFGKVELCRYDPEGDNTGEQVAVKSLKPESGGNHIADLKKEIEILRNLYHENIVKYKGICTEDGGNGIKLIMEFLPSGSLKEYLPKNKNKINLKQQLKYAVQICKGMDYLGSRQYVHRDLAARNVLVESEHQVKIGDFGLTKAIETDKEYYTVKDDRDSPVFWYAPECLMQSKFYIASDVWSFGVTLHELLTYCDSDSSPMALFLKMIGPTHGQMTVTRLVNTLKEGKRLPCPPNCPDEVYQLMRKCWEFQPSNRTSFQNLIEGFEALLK
Nature of the test: In vitro inhibitory activity on JAK1 kinase (ADP-Glo Kinase Assay). It is filed as biochemical. The conditions noted are these: JAK1 kinase 4 nM, 1 mM ATP. As to the method: Test Example 1: Determination of In Vitro Inhibitory Activity of the Compounds of the Present Invention on JAK1 Kinase Experimental materials: JAK1 kinase (Invitrogen, PV4744), ATP (Promega, V915B), ADP-Glo Kinase Assay (Promega, V9101), IRS1 (Signalchem, 140-58-1000). Sample preparation: The compounds of the present invention and the control product were dissolved in DMSO solvent respectively to formulate into 10 mM initial liquid. The maximum concentration of the compound was 10 μM, 3-fold dilution, 10 concentration gradients, and duplicate wells for each concentration gradient. Experimental processs: 0.1 μL of the compound to be tested was transferred into a 384 reaction plate (PE, 6007290) via Echo and centrifuged at 1000 rpm/min for 1 min. 5 μL JAK1 kinase (final concentration of 4 nM) was transferred into the 384 reaction plate, which was then centrifuged at 1000 rpm/min for 1 min, and incubated at 25° C. for 15 min. 5 μL substrate mixture (1 mM ATP, IRS1 0.05 mg/ml, kinase buffer solution) was transferred into the 384 reaction plate, which was then centrifuged at 1000 rpm/min for 1 min, and incubated at 25° C. for 60 min. 10 μL ADP-Glo was transferred into the 384 reaction plate, which was then centrifuged at 1000 rpm/min for 1 min, and incubated at 25° C. for 40 min. 20 μL test solution was transferred into the 384 reaction plate, which was then centrifuged at 1000 rpm/min for 1 min and incubated at 25° C. for 40 min. RLU (Relative luminescence unit) signal was read by using an Envision multifunctional plate reader. The signal intensity was used to characterize the degree of the kinase activity. […] IC50 value of 0-100 nM is shown as A, IC50 value of 100-300 nM is shown as B, IC50 value of 300-1000 nM is shown as C, and IC50 value which is greater than 1000 nM is shown as D. NT means not tested.
(ADP-Glo turns the ADP formed in a reaction into a luminescent signal.)
As usually defined, the IC50 is the concentration that gives 50% inhibition. A low value points to greater potency in that assay. `Cn1cc(Nc2nccc(C3=CC4CCC(C3)N4C3(CC#N)CN(C(=O)NCC(F)(F)F)C3)n2)cn1` (centres unmarked) [Compound 86, 3-(cyanomethyl)-3-(3-(2-((1-methyl-1H-pyrazol-4-yl)amino)pyrimidin-4-yl)-8-azabicyclo[3.2.1]oct-2-en-8-yl)-N-(2,2,2-trifluoroethyl)azetidine-1-carboxamide] returned an IC50 above 1000 nM.

`CC(C)(O)Cn1cc(Nc2nccc(C3=CC4CCC(C3)N4C(=O)[C@@H]3CC3(F)F)n2)cn1` (stereo partly drawn) [Compound 41, ((S)-2,2-Difluorocyclopropyl)(3-(2-((1-(2-hydroxy-2-methylpropyl)-1H-pyrazol-4-yl)amino)pyrimidin-4-yl)-8-azabicyclo[3.2.1]oct-2-en-8-yl)methanone]: the IC50 lay in the range of 100 to 300 nM. In the case of `Cn1cc(Nc2nccc(C3=CC4CCC(C3)N4C(=O)C34CC(F)(C3)C4)n2)cn1` (centres unmarked) [Compound 74, (3-fluorobicyclo[1.1.1]pentan-1-yl)(3-(2-((1-methyl-1H-pyrazol-4-yl)amino)pyrimidin-4-yl)-8-azabicyclo[3.2.1]oct-2-en-8-yl)methanone] it was above 1000 nM. For `Cn1cc(Nc2nccc(C3=CC4CCC(C3)N4C(=O)N3CC(C#N)C3)n2)cn1` (centres unmarked) [Compound 10, 1-(3-(2-((1-methyl-1H-pyrazol-4-yl)amino)pyrimidin-4-yl)-8-azabicyclo[3.2.1]oct-2-ene-8-carbonyl)azetidine-3-nitrile], the IC50 is above 1000 nM.

The compound `Cc1cnc(Nc2cn(C)nc2C)nc1C1=CC2CCC(C1)N2C(=O)NCC(F)(F)F` (centres unmarked) [Compound 26, 3-(2-((1,3-dimethyl-1H-pyrazol-4-yl)amino)-5-methylpyrimidin-4-yl)-N-(2,2,2-trifluoroethyl)-8-azabicyclo[3.2.1]oct-2-ene-8-carboxamide] showed an IC50 below 100 nM.

Take `Cn1cc(Nc2ncc(F)c(C3=CC4CCC(C3)N4C(=O)[C@@H]3CC3(F)F)n2)cn1` (stereo partly drawn) [Compound 21, ((S)-2,2-difluorocyclopropyl)(3-(5-fluoro-2-((1-methyl-1H-pyrazol-4-yl)amino)pyrimidin-4-yl)-8-azabicyclo[3.2.1]oct-2-en-8-yl)methanone]: the IC50 was below 100 nM. In turn, `Cn1cc(Nc2nccc(C3=CC4CCC(C3)N4C(=O)c3cc(C#N)cs3)n2)cn1` (centres unmarked) [Compound 18, 5-(3-(2-((1-methyl-1H-pyrazol-4-yl)amino)pyrimidin-4-yl)-8-azabicyclo[3.2.1]oct-2-ene-8-formyl)thiophene-3-carbonitrile] gave an IC50 above 1000 nM. With `Cn1cc(Nc2nccc(C3=CC4CCC(C3)N4C(=O)C(C)(C)C(F)(F)F)n2)cn1` (centres unmarked) [Compound 68, 3,3,3-trifluoro-2,2-dimethyl-1-(3-(2-((1-methyl-1H-pyrazol-4-yl)amino)pyrimidin-4-yl)-8-azabicyclo[3.2.1]oct-2-en-8-yl)acetone] the figure was 300 to 1000 nM; with `CC(C#N)C(=O)N1C2C=C(c3ccnc(Nc4cnn(C)c4)n3)CC1CC2` (centres unmarked) [Compound 62, 2-methyl-3-(3-(2-((1-methyl-1H-pyrazol-4-yl)amino)pyrimidin-4-yl)-8-azabicyclo[3.2.1]oct-2-en-8-yl)-3-oxopropionitrile], 100 to 300 nM. In the case of `Cn1cc(Nc2nccc(C3=CC4CCC(C3)N4C(=O)C(=O)NCC#N)n2)cn1` (centres unmarked) [Compound 83, N-(cyanomethyl)-2-(3-(2-((1-methyl-1H-pyrazol-4-yl)amino)pyrimidin-4-yl)-8-azabicyclo[3.2.1]oct-2-en-8-yl)-2-oxoacetamide] it was above 1000 nM. With `Cn1cc(Nc2nccc(C3=CC4CCC(C3)N4C(=O)NC3CC3(F)F)n2)cn1` (centres unmarked) [Compound 14, N-(2,2-difluorocyclopropyl)-3-(2-((1-methyl-1H-pyrazol-4-yl)amino)pyrimidin-4-yl)-8-azabicyclo[3.2.1]oct-2-ene-8-carboxamide] the figure was 100 to 300 nM; with `Cn1cc(Nc2nccc(C3=CC4CCC(C3)N4C(=O)C34CC(C(F)(F)F)(C3)C4)n2)cn1` (centres unmarked) [Compound 71, (3-(2-((1-methyl-1H-pyrazol-4-yl)amino)pyrimidin-4-yl)-8-azabicyclo[3.2.1]oct-2-en-8-yl)(3-(trifluoromethyl)bicyclo[1.1.1]pentan-1-yl)methanone], above 1000 nM; with `COC1CC(C(=O)N2C3C=C(c4ccnc(Nc5cnn(C)c5)n4)CC2CC3)C1` (centres unmarked) [Compound 80, (3-methoxycyclobutyl)(3-(2-((1-methyl-1H-pyrazol-4-yl)amino)pyrimidin-4-yl)-8-azabicyclo[3.2.1]oct-2-en-8-yl)methanone], above 1000 nM. For the compound `Cn1cc(Nc2nccc(C3=CC4CCC(C3)N4S(=O)(=O)NCC#N)n2)cn1` (centres unmarked) [Compound 4, N-(cyanomethyl)-3-(2-((1-methyl-1H-pyrazol-4-yl)amino)pyrimidin-4-yl)-8-azabicyclo[3.2.1]oct-2-ene-8-sulfonamide], the IC50 is above 1000 nM. As for `Cc1cnc(Nc2cnn(C)c2Cl)nc1C1=CC2CCC(C1)N2C(=O)NCC(F)(F)F` (centres unmarked) [Compound 32, 3-(2-((5-chloro-1-methyl-1H-pyrazol-4-yl)amino)-5-methylpyrimidin-4-yl)-N-(2,2,2-trifluoroethyl)-8-azabicyclo[3.2.1]oct-2-ene-8-carboxamide], the IC50 is 100 to 300 nM. In the case of `Cc1cnc(Nc2cnn(CC(C)(C)O)c2)nc1C1=C[C@H]2CC[C@@H](C1)N2C(=O)NCC(F)(F)F` [Compound 29-b, (1R,5S)-3-(2-((1-(2-Hydroxy-2-methylpropyl)-1H-pyrazol-4-yl)amino)-5-methylpyrimidin-4-yl)-N-(2,2,2-trifluoroethyl)-8-azabicyclo[3.2.1]oct-2-ene-8-carboxamide] it was below 100 nM; in that of `Cc1cnc(Nc2cnn(CCO)c2)nc1C1=CC2CCC(C1)N2C(=O)NCC(F)(F)F` (centres unmarked) [Compound 28, 3-(2-((1-(2-hydroxyethyl)-1H-pyrazol-4-yl)amino)-5-methylpyrimidin-4-yl)-N-(2,2,2-trifluoroethyl)-8-azabicyclo[3.2.1]oct-2-ene-8-carboxamide], below 100 nM.

As for `Cn1cc(Nc2nccc(C3=CC4CCC(C3)N4C(=O)C3(C#N)CCOCC3)n2)cn1` (centres unmarked) [Compound 64, 4-(3-(2-((1-methyl-1H-pyrazol-4-yl)amino)pyrimidin-4-yl)-8-azabicyclo[3.2.1]oct-2-ene-8-carbonyl)tetrahydro-2H-pyran-4-cyano], the IC50 was in the range of 300 to 1000 nM. With `Cc1cnc(Nc2cnn(C3CC3)c2)nc1C1=CC2CCC(C1)N2C(=O)NCC(F)(F)F` (centres unmarked) [Compound 31, 3-(2-((1-Cyclopropyl-1H-pyrazol-4-yl)amino)-5-methylpyrimidin-4-yl)-N-(2,2,2-trifluoroethyl)-8-azabicyclo[3.2.1]oct-2-ene-8-carboxamide] the figure was below 100 nM. With `Cn1cc(Nc2ncc(Cl)c(C3=CC4CCC(C3)N4C(=O)[C@@H]3CC3(F)F)n2)cn1` (stereo partly drawn) [Compound 23, (3-(5-chloro-2-((1-methyl-1H-pyrazol-4-yl)amino)pyrimidin-4-yl)-8-azabicyclo[3.2.1]oct-2-en-8-yl)((S)-2,2-difluorocyclopropyl)methanone] the figure was below 100 nM; with `CCCS(=O)(=O)N1CC(N2C3C=C(c4ccnc(Nc5cnn(C)c5)n4)CC2CC3)C1` (centres unmarked) [Compound 84, N-(1-methyl-1H-pyrazol-4-yl)-4-(8-(1-(propansulfonyl)azetidin-3-yl)-8-azabicyclo[3.2.1]oct-2-en-3-yl)pyrimidin-2-amine], above 1000 nM; with `Cn1cc(Nc2nccc(C3=CC4CCC(C3)N4C(=O)N3CCC(F)(F)C3)n2)cn1` (centres unmarked) [Compound 8, (3,3-difluoropyrrolidin-1-yl)(3-(2-((1-methyl-1H-pyrazol-4-yl)amino)pyrimidin-4-yl)-8-azabicyclo[3.2.1]oct-2-en-8-yl)methanone], 300 to 1000 nM. In the case of `Cn1cc(Nc2nccc(C3=CC4CCC(C3)N4C(=O)C3CC3(C)C)n2)cn1` (centres unmarked) [Compound 60, (2,2-Dimethylcyclopropyl)(3-(2-((1-methyl-1H-pyrazol-4-yl)amino)pyrimidin-4-yl)-8-azabicyclo[3.2.1]oct-2-en-8-yl)methanone] it was above 1000 nM; in that of `Cn1cc(Nc2nccc(C3=CC4CCC(C3)N4C(=O)CCC(F)(F)F)n2)cn1` (centres unmarked) [Compound 5, 4,4,4-trifluoro-1-(3-(2-((1-methyl-1H-pyrazol-4-yl)amino)pyrimidin-4-yl)-8-azabicyclo[3.2.1]oct-2-en-8-yl)butan-1-one], 300 to 1000 nM; in that of `Cn1cc(Nc2nccc(C3=CC4CCC(C3)N4C(=O)NC3(C(F)(F)F)CC3)n2)cn1` (centres unmarked) [Compound 33, 3-(2-((1-methyl-1H-pyrazol-4-yl)amino)pyrimidin-4-yl)-N-(1-(trifluoromethyl)cyclopropyl)-8-azabicyclo[3.2.1]oct-2-ene-8-carboxamide], below 100 nM.

In turn, `Cc1cnc(Nc2cnn(C)c2)nc1C1=C[C@H]2CC[C@@H](C1)N2C(=O)[C@@H]1CC1(F)F` [Compound 22-b, ((S)-2,2-difluorocyclopropyl)((1R,5S)-3-(5-methyl-2-((1-methyl-1H-pyrazol-4-yl)amino)pyrimidin-4-yl)-8-azabicyclo[3.2.1]oct-2-en-8-yl)methanone] displayed an IC50 below 100 nM.
